# Test results as given in the supplement of paper PMC12317010.
# Where a name gives a salt, the structure may show the parent alone.
# Test: collision cross section in nitrogen (drift tube, single-field); higher = larger gas-phase ion size
# [1] = ion type: [M+], ion source: APCI, ion mode: Positive
# [2] = ion type: [M-H], ion source: ESI, ion mode: Negative
# [3] = ion type: [M+Na], ion source: ESI, ion mode: Positive
# [4] = ion type: [M+H], ion source: APCI, ion mode: Positive
# [5] = ion type: [M+H], ion source: ESI, ion mode: Positive
# 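Further: chemical standards at 10 µM analysed by drift tube IMS-QTOF MS in about 3.95 torr nitrogen, mean of duplicate injections differing ≤1%, mass error below 10 ppm.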
SMILES,collision cross section in nitrogen [2] [Å²],collision cross section in nitrogen [3] [Å²],collision cross section in nitrogen [4] [Å²],collision cross section in nitrogen [5] [Å²],also measured
"O=C(Nc1ccc2c(c1)Cc1ccccc1-2)C(F)(F)F [N-(2-Fluorenyl)-2,2,2-trifluoroacetamide]",160.4,,,,collision cross section in nitrogen [1]: 156.6 Å²
COc1ccccc1NC(=O)CC(C)=O [N-(2-Methoxyphenyl)-3-oxobutanamide],,152.3,,,
CC(=O)CC(=O)Nc1ccccc1C [N-(2-Methylphenyl)-3-oxobutanamide],142.5,154.9,,,
"CNC(=O)Nc1ccc(Cl)c(Cl)c1 [N-(3,4-Dichlorophenyl)-N'-methylurea]",142.4,,,,
"NC(=O)Nc1ccc(Cl)c(Cl)c1 [N-(3,4-Dichlorophenyl)urea]",135.7,,,,
CCC(=O)Nc1cccc(N)c1 [N-(3-Aminophenyl)propanamide],138.7,,135.8,136.5,
C(=CNc1ccccc1)C=Nc1ccccc1 [N-(3-Anilino-2-propenylidene)aniline monohydrochloride],158.6,,,159.3,
CC(=O)Nc1ccc(C)c(Cl)c1 [N-(3-Chloro-4-methylphenyl)acetamide],138.2,,,,
"COc1cc2ncnc(Nc3cccc(Cl)c3)c2cc1OC [N-(3-Chlorophenyl)-6,7-dimethoxyquinazolin-4-amine]",177.1,,177.3,171,
C=C(C)C(=O)NCCCN(C)C [N-(3-Dimethylaminopropyl)methacrylamide],,,135.8,137.1,
CCOc1ccc(NC(=O)CC(C)=O)cc1 [N-(4-Ethoxyphenyl)-3-oxobutanamide],155.9,167.3,154.6,,
COc1ccc(NC(=O)CC(C)=O)cc1 [N-(4-Methoxyphenyl)-3-oxobutanamide],148.5,160.2,146.5,,
O=C(NCc1cccnc1)Nc1ccc([N+](=O)[O-])cc1 [N-(4-Nitrophenyl)-N'-(3-pyridinylmethyl)urea],165.3,,174.7,174.3,
CC(C)C[C@H](NC(=O)OCC1c2ccccc2-c2ccccc21)C(=O)O [N-(9-Fluorenylmethoxycarbonyl)-L-leucine],,184.7,,,
c1ccc(CNc2[nH]cnc3ncnc2-3)cc1 [N-Benzyl-1H-purin-6-amine],154.5,162.8,148.7,148.3,
c1ccc(CNc2ncnc3c2ncn3C2CCCCO2)cc1 (centres undefined) [N-Benzyl-9-(tetrahydro-2H-pyran-2-yl)adenine],185.6,189.3,177.9,176.5,

SMILES,collision cross section in nitrogen [2] [Å²],collision cross section in nitrogen [3] [Å²],collision cross section in nitrogen [4] [Å²],collision cross section in nitrogen [5] [Å²],also measured
CC(=O)NCc1ccccc1 [N-Benzylacetamide],135.1,,,,
OCCNCc1ccccc1 [N-Benzylethanolamine],,,,134.9,
CCCC[n+]1ccccc1 [N-Butylpyridinium chloride],,,,,"collision cross section in nitrogen (ion source: ESI, ion mode: Positive, ion type: [M]+ (permanent cation)): 127.7 Å²"
CCNS(=O)(=O)C(F)(F)C(F)(F)C(F)(F)C(F)(F)C(F)(F)C(F)(F)C(F)(F)C(F)(F)F [N-Ethylperfluorooctane sulfonamide],180.4,,,,
CN(N=O)c1ccccc1 [N-Methyl-N-nitrosoaniline],,,124.5,125.1,
c1ccc(Nc2ccc3ccccc3c2)cc1 [N-Phenyl-2-naphthylamine],,,150,151.3,collision cross section in nitrogen [1]: 149.2 Å²
CCCCCCCCC(=O)NCc1ccc(O)c(OC)c1 [N-Vanillylnonanamide],,178,,,
CCN(CC)C(=O)C(C)Oc1cccc2ccccc12 (centres undefined) [Napropamide],,172,163.8,164.2,
O=C(O)c1ccccc1C(=O)Nc1cccc2ccccc12 [Naptalam],168.6,170.9,,,
Cc1cccc(C)c1NC(=O)CN1CCCC1=O [Nefiracetam],,167.3,,,
CC(C)(COCC1CO1)COCC1CO1 (centres undefined) [Neopentyl glycol diglycidyl ether],,148.2,,,
COc1cc(OC)nc(NC(=O)NS(=O)(=O)c2ncccc2C(=O)N(C)C)n1 [Nicosulfuron],,196.2,,,
O=[N+]([O-])c1ccc([As](=O)(O)O)cc1 [Nitarsone],138.9,,,144.4,
CCCN(CCC)c1c([N+](=O)[O-])cc(S(C)(=O)=O)cc1[N+](=O)[O-] [Nitralin],177,,,,
"O=[N+]([O-])O [Nitric acid, calcium salt (2:1)]",104.5,,,,

# Now from value to compound, other results behind:
collision cross section in nitrogen [2] [Å²],collision cross section in nitrogen [3] [Å²],collision cross section in nitrogen [4] [Å²],collision cross section in nitrogen [5] [Å²],SMILES,also measured
,,153.3,154,"CCCCNC1CC(C)(C)NC(C)(C)C1 [N-Butyl-2,2,6,6-tetramethylpiperidin-4-amine]",
155,169.3,,,CCCCNS(=O)(=O)c1ccc(C)cc1 [N-Butyl-p-toluenesulfonamide],
148.3,,,,CCCCNS(=O)(=O)c1ccccc1 [N-Butylbenzenesulfonamide],
,,136.3,136.7,CCCCN(CCO)CCO [N-Butyldiethanolamine],
,,,142.8,N#CCCN(CCO)c1ccccc1 [N-Cyanoethyl-hydroxyethyl aniline],
170.1,175.7,,,CCCCCCCCCCCC(=O)N(C)CC(=O)O [N-Dodecanoyl-N-methylglycine],
155.6,171.3,153.5,152.7,CCNC(=O)C1CC(C)CCC1C(C)C (centres undefined) [N-Ethyl-2-(isopropyl)-5-methylcyclohexanecarboxamide],
,,139.5,140.5,"CCN(CCN)c1cccc(C)c1 [N-Ethyl-N-(3-methylphenyl)ethane-1,2-diamine]",
,,133.7,135.4,CCN1C(=O)c2ccccc2C1=O [N-Ethylphthalimide],
,,129,,CN1C(=O)c2ccccc2C1=O [N-Methylphthalimide],
,,137.7,137.9,OCCN(CCO)c1ccccc1 [N-Phenyl diethanolamine],
,,143.1,,"Nc1ccc(Nc2ccccc2)cc1 [N-Phenyl-1,4-benzenediamine]",
152.1,,149.7,,c1ccc(Nc2cccc3ccccc23)cc1 [N-Phenyl-1-naphthylamine],collision cross section in nitrogen [1]: 148.7 Å²
,181.8,185.5,185.2,CCCCCCCCCCCC(=O)NCCCN(C)C [N-[3-(Dimethylamino)propyl]dodecanamide],
,162.2,153.4,152.9,CNC(=O)C(c1ccccc1)c1ccccc1 [N-methyl-alpha-phenylbenzeneacetamide],
,161.1,147.5,147.8,CCn1cc(C(=O)O)c(=O)c2ccc(C)nc21 [Nalidixic acid],
233.1,233.3,231.8,230.6,COc1ccc(S(=O)(=O)N2C(=O)[C@@](c3ccccc3OC)(N3C[C@H](O)C[C@H]3C(=O)N(C)C)c3cc(Cl)ccc32)c(OC)c1 [Nelivaptan],
145.2,,,,CCC(C)(CCC(C)C)C(=O)O (centres undefined) [Neodecanoic acid],
,180.7,,,CC(C)(COC(=O)c1ccccc1)COC(=O)c1ccccc1 [Neopentyl glycol dibenzoate],
,,125.7,,NC(=O)c1cccnc1 [Niacinamide],
214.2,211.2,213,212.6,COC(=O)C1=C(C)NC(C)=C(C(=O)OCCN(C)Cc2ccccc2)C1c1cccc([N+](=O)[O-])c1 (centres undefined) [Nicardipine hydrochloride],collision cross section in nitrogen [1]: 208.8 Å²
,,137,137.7,CN1CCC[C@H]1c1cccnc1 [Nicotine sulfate (2:1)],
,,,124.2,O=C(O)c1cccnc1 [Nicotinic acid],
,,119.2,119.8,OCc1cccnc1 [Nicotinyl alcohol],
162.8,,,,CC1(C)NC(=O)N(c2ccc([N+](=O)[O-])c(C(F)(F)F)c2)C1=O [Nilutamide],
,195.5,,,COC(=O)C1=C(C)NC(C)=C(C(=O)OCC(C)C)C1c1ccccc1[N+](=O)[O-] (centres undefined) [Nisoldipine],
181.9,178.1,171.3,171,CNC(=C[N+](=O)[O-])NCCSCc1csc(CN(C)C)n1 [Nizatidine],
,,155.8,156.2,CN1Cc2c(N)cccc2C(c2ccccc2)C1 (centres undefined) [Nomifensine],
140.7,,,,O=C(O)CCCCCCCC(=O)O [Nonanedioic acid],
146.2,,,,CCCCCCCCC(=O)O [Nonanoic acid],
